In patent US20230233569A1 (Revolution Medicines, Inc., priority 2020, published 2023):
Values joined by “and” are separate entries in the source; they are usually repeats but may differ in a detail not shown here. Identical values can stand only once. Like-named read-outs stand apart in the source and are kept apart here.

Experiments:
Test in all cases: Disruption of BRAF RBD interaction with Ras (FRET / MOA assay, with Cyclophilin A)
Format in all cases: biochemical
KRAS G12C = KRAS G12C (Homo sapiens, UniProt P01116+P62937, G12C)
Source text: (§1) This protocol may also be executed substituting other Ras proteins or nucleotides.
(§2) The purpose of this biochemical assay was to measure the ability of test compounds to facilitate ternary complex formation between a nucleotide-loaded K-Ras isoform and Cyclophilin A; the resulting ternary complex disrupts binding to a BRAF^RBD construct, inhibiting K-Ras signaling through a RAF effector. Data is reported as IC50 values.
(§3) Compound was present in plate wells as a 10-point 3-fold dilution series starting at a final concentration of 30 μM. After incubation at 25° C. for 3 hours, a mixture of Anti-His Eu-W1024 and anti-GST allophycocyanin was then added to assay sample wells at final concentrations of 10 nM and 50 nM, respectively, and the reaction incubated for an additional 1.5 hours. […] Compounds that facilitate disruption of a K-Ras:RAF complex were identified as those eliciting a decrease in the TR-FRET ratio relative to DMSO control wells.
as §2, with “BRAF^RBDD” for “BRAF^RBD”

KRAS G13C = KRAS G13C (Homo sapiens, UniProt P01116+P62937, G13C)
Source text: as §1, §2, §3
as §2, with “BRAF^RBDD” for “BRAF^RBD”

KRAS G12V = KRAS G12V (Homo sapiens, UniProt P01116+P62937, G12V)
Source text: as §1, §2, §3
as §2, with “BRAF^RBDD” for “BRAF^RBD”

KRAS G12S = KRAS G12S (Homo sapiens, UniProt P01116+P62937, G12S)
Source text: as §1, §2, §3
as §2, with “BRAF^RBDD” for “BRAF^RBD”

KRAS G12D = KRAS G12D (Homo sapiens, UniProt P01116+P62937, G12D)
Source text: as §1, §2, §3
as §2, with “BRAF^RBDD” for “BRAF^RBD”

KRAS WT = KRAS WT (Homo sapiens, UniProt P01116+P62937)
Source text: as §1, §2, §3
as §2, with “BRAF^RBDD” for “BRAF^RBD”

[1] = KRAS G12C, read-out: KRAS G12C FRET data IC50
[2] = KRAS G13C, read-out: KRAS G13C FRET data IC50
[3] = KRAS G12V, read-out: KRAS G12V FRET data IC50
[4] = read-out: KRAS G12S FRET data, IC50
[5] = read-out: KRAS G12D FRET data, IC50
[6] = KRAS WT, read-out: KRAS WT FRET data IC50

Sequence of KRAS G12S (P01116 1-169 isoform P01116-2 G12S limits assumed): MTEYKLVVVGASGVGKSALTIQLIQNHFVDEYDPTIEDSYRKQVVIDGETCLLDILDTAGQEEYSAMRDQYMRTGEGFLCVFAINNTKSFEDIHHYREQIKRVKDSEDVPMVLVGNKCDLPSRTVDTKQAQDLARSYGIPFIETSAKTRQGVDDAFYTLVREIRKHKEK
Sequence of KRAS G12S (P62937 whole entry): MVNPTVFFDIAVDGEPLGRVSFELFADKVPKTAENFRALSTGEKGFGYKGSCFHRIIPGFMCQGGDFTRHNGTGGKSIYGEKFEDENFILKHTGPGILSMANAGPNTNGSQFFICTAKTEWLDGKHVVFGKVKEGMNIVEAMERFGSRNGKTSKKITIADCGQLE
Sequence of KRAS G12D (P01116 1-169 isoform P01116-2 G12D limits assumed): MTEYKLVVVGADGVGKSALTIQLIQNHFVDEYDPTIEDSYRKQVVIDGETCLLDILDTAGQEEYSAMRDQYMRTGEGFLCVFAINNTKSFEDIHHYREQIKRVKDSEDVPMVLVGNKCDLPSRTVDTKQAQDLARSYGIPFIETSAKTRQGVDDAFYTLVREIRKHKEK
Sequence of KRAS G12D (P62937 whole entry): as the sequence (P62937 whole entry) above
Sequence of KRAS G12V (P01116 1-169 isoform P01116-2 G12V limits assumed): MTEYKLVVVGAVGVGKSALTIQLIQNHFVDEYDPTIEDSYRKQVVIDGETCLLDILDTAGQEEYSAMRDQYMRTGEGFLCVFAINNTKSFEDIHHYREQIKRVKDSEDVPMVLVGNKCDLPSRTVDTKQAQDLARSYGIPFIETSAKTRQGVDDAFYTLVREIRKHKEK
Sequence of KRAS G12V (P62937 whole entry): as the sequence (P62937 whole entry) above
Sequence of KRAS WT (P01116 1-169 isoform P01116-2 limits assumed): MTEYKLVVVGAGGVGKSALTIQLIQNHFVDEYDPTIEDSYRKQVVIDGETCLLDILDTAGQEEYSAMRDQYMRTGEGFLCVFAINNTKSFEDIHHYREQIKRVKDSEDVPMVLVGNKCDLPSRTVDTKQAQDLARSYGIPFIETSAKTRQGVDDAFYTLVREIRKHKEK
Sequence of KRAS WT (P62937 whole entry): as the sequence (P62937 whole entry) above
Sequence of KRAS G13C (P01116 1-169 isoform P01116-2 G13C): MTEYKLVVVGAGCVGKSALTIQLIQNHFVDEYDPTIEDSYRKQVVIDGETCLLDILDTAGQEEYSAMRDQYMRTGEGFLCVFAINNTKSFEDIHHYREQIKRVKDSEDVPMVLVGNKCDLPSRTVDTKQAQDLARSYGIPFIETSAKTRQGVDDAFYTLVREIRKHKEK
Sequence of KRAS G13C (P62937 whole entry): as the sequence (P62937 whole entry) above
Sequence of KRAS G12C (P01116 1-169 isoform P01116-2 G12C): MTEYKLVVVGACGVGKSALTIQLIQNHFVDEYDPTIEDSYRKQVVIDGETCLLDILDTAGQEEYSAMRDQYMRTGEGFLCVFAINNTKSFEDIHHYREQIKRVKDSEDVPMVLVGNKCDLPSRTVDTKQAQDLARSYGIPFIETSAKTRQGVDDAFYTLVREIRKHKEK
Sequence of KRAS G12C (P62937 whole entry): as the sequence (P62937 whole entry) above

C=CC(=O)N1CC[C@H](C(=O)N(C)[C@H](C(=O)N[C@H]2Cc3cc(O)cc(c3)-c3ccc4c(c3)c(c(-c3ccccc3[C@@H](C)OC)n4CC)CC(C)(C)COC(=O)[C@@H]3CCCN(N3)C2=O)C(C)C)C1 [Example A029]
IC50 (KRAS G12C; [1]): 10 to 100 nM
IC50 (KRAS G13C; [2]): 100 to 1000 nM
IC50 (KRAS G12V; [3]): 100 to 1000 nM
IC50 (KRAS G12S; [4]): 100 to 1000 nM
IC50 (KRAS G12D; [5]): 1000 to 10000 nM
IC50 (KRAS WT; [6]): 100 to 1000 nM

C=CC(=O)N1CC[C@H](C(=O)N(C)[C@H](C(=O)N[C@H]2Cc3cc(OC(=O)NCC(=O)O)cc(c3)-c3ccc4c(c3)c(c(-c3ccccc3CCOC)n4CC)CC(C)(C)COC(=O)[C@@H]3CCCN(N3)C2=O)C(C)C)C1 [Example A036]
IC50 (KRAS G12C; KRAS G12C FRET data IC50, KRAS G12C): 1000 to 10000 nM and > 10000 nM
IC50 (KRAS G13C; KRAS G13C FRET data IC50, KRAS G13C): 100 to 1000 nM and > 10000 nM
IC50 (KRAS G12V; KRAS G12V FRET data IC50, KRAS G12V): 1000 to 10000 nM and > 10000 nM
IC50 (KRAS G12S; KRAS G12S FRET data, IC50): 1000 to 10000 nM and > 10000 nM
IC50 (KRAS G12D; KRAS G12D FRET data, IC50): > 10000 nM
IC50 (KRAS WT; KRAS WT FRET data IC50, KRAS WT): 1000 to 10000 nM and > 10000 nM

C=CC(=O)N1CC[C@H](C(=O)N(C)[C@H](C(=O)N[C@H]2Cc3cc(O)cc(c3)-c3ccc4c(c3)c(c(-c3ccccc3CCOC)n4C(C)(C)C#N)CC(C)(C)COC(=O)[C@@H]3CCCN(N3)C2=O)C(C)C)C1 [Example A034]
IC50 (KRAS G12C; [1]): 100 to 1000 nM
IC50 (KRAS G13C; [2]): 1000 to 10000 nM
IC50 (KRAS G12V; [3]): 100 to 1000 nM
IC50 (KRAS G12S; [4]): 100 to 1000 nM
IC50 (KRAS G12D; [5]): 1000 to 10000 nM
IC50 (KRAS WT; [6]): 1000 to 10000 nM

CCn1c(-c2ccccc2CN(C)C)c2c3cc(ccc31)-c1cc(O)cc(c1)C[C@H](NC(=O)[C@H](C(C)C)N(C)C(=O)[C@H]1CCN(C(=O)/C=C/CN(C)C)C1)C(=O)N1CCC[C@H](N1)C(=O)OCC(C)(C)C2 [Example A047]
IC50 (KRAS G12C; [1]): 10 to 100 nM
IC50 (KRAS G13C; [2]): 100 to 1000 nM
IC50 (KRAS G12V; [3]): 100 to 1000 nM
IC50 (KRAS G12S; [4]): 100 to 1000 nM
IC50 (KRAS G12D; [5]): 1000 to 10000 nM
IC50 (KRAS WT; [6]): 1000 to 10000 nM

C=CC(=O)N1CC[C@H](C(=O)N(C)[C@H](C(=O)N[C@H]2Cc3cc(O)cc(c3)-c3ccc4c(c3)c(c(-c3ccc(CN(C)C)cc3COC)n4CC)CC(C)(C)COC(=O)[C@@H]3CCCN(N3)C2=O)C(C)C)C1 [Example A051]
IC50 (KRAS G12C; [1]): 10 to 100 nM
IC50 (KRAS G13C; [2]): 1000 to 10000 nM
IC50 (KRAS G12V; [3]): 100 to 1000 nM
IC50 (KRAS G12S; [4]): 100 to 1000 nM
IC50 (KRAS G12D; [5]): 1000 to 10000 nM
IC50 (KRAS WT; [6]): 1000 to 10000 nM

C=CC(=O)N1C[C@H](C)[C@H](C(=O)N(C)[C@H](C(=O)N[C@H]2Cc3cc(O)cc(c3)-c3ccc4c(c3)c(c(-c3ccccc3CN(C)C)n4CC)CC(C)(C)COC(=O)[C@@H]3CCCN(N3)C2=O)C(C)C)C1 [Example A052]
IC50 (KRAS G12C; [1]): 10 to 100 nM
IC50 (KRAS G13C; [2]): 100 to 1000 nM
IC50 (KRAS G12V; [3]): 100 to 1000 nM
IC50 (KRAS G12S; [4]): 100 to 1000 nM
IC50 (KRAS G12D; [5]): 1000 to 10000 nM
IC50 (KRAS WT; [6]): 100 to 1000 nM

CCn1c(-c2ccccc2CCOC)c2c3cc(ccc31)-c1cc(O)cc(c1)C[C@H](NC(=O)[C@H](C(C)C)N(C)C(=O)C1CCN(C(=O)/C=C/CN(C)C)CC1)C(=O)N1CCC[C@H](N1)C(=O)OCC(C)(C)C2 [Example A019]
IC50 (KRAS G12C; [1]): 100 to 1000 nM
IC50 (KRAS G13C; [2]): 1000 to 10000 nM
IC50 (KRAS G12V; [3]): > 10000 nM
IC50 (KRAS G12S; [4]): 1000 to 10000 nM
IC50 (KRAS G12D; [5]): > 10000 nM
IC50 (KRAS WT; [6]): 1000 to 10000 nM

C=CC(=O)N1CC[C@H](C(=O)N(C)[C@H](C(=O)N[C@H]2Cc3cc(O)cc(c3)-c3ccc4c(c3)c(c(-c3cncc(CCN(C)C)c3)n4CC)CC(C)(C)COC(=O)[C@@H]3CCCN(N3)C2=O)C(C)C)C1 [Example A081]
IC50 (KRAS G12C; [1]): 100 to 1000 nM
IC50 (KRAS G13C; [2]): 1000 to 10000 nM
IC50 (KRAS G12V; [3]): 1000 to 10000 nM
IC50 (KRAS G12S; [4]): 1000 to 10000 nM
IC50 (KRAS G12D; [5]): > 10000 nM
IC50 (KRAS WT; [6]): 1000 to 10000 nM

C=CC(=O)N1CC[C@H](C(=O)N(C)[C@H](C(=O)N[C@H]2Cc3cc(O)cc(c3)-c3ccc4c(c3)c(c(-c3cnccc3[C@H](C)OC)n4CC)CC(C)(C)COC(=O)[C@@H]3CCCN(N3)C2=O)C(C)C)C1 [Example A112]
IC50 (KRAS G12C; [1]): < 10 nM

C=CC(=O)N1CC[C@H](C(=O)N(C)[C@H](C(=O)N[C@H]2Cc3cc(O)cc(c3)-c3ccc4c(c3)c(c(-c3ccc(N5CCN(C)CC5)nc3)n4CC)CC(C)(C)COC(=O)[C@@H]3CCCN(N3)C2=O)C(C)C)C1 [Example A089]
IC50 (KRAS G12D; [5]): > 10000 nM
